Laboratory results: US7241771B2, “Oxepane isomer of 42-O-(2-hydroxy)ethyl-rapamycin” (Wyeth, priority 2005, dated 2007)
≈ marks a conversion by molar mass, not a printed value.

What was measured:
Assay in all cases: Antifungal activity, microtiter MIC
Type in all cases: cell-based
Aspergillus niger = Aspergillus niger strain ATCC 16404, RPMI 1640, 35° C., 24–48 hours
Procedure: (§1) Antifungal activity for the compound of this invention was established by evaluation against several strains of fungi. Briefly, the following procedure was used to evaluate such activity. A 96 well microtiter plate was filled (50 μL/well) with RPMI 1640. The compounds to be evaluated were placed in appropriate wells and serial diluted in successive wells to provide several dilutions. The concentrations ranged from […]. An adjusted inoculum of fungi (50 μL) was added to each well and plates were incubated at 35° C. for 24–48 hours.

Candida tropicalis = settings: RPMI 1640, 35° C., 24–48 hours
Procedure: as §1

Candida zeylanoided = Candida zeylanoided strain 94-15; RPMI 1640, 35° C., 24–48 hours
Procedure: as §1

Aspergillus fumigatus = Aspergillus fumigatus strain ATCC 26933, RPMI 1640, 35° C., 24–48 hours
Procedure: as §1

Candida albicans = settings: RPMI 1640, 35° C., 24–48 hours; for MIC: Candida albicans
Procedure: as §1

Candida lusitaniae = Candida lusitaniae strain 94-3, RPMI 1640, 35° C., 24–48 hours
Procedure: as §1

Candida parapsilosis = settings: RPMI 1640, 35° C., 24–48 hours; for MIC: Lodderomyces parapsilosis
Procedure: as §1

Candida rugosa = Candida rugosa strain 94-10, RPMI 1640, 35° C., 24–48 hours
Procedure: as §1

Candida krussii = Candida krussii strain 94-2; RPMI 1640, 35° C., 24–48 hours
Procedure: as §1

Candida pseudotropicalis = Candida pseudotropicalis strain ATCC 28838, RPMI 1640, 35° C., 24–48 hours
Procedure: as §1

Aspergillus flavusr = Aspergillus flavusr strain S506; RPMI 1640, 35° C., 24–48 hours
Procedure: as §1

[1] = Candida tropicalis strain 94-13
[2] = Candida tropicalis strain 94-14
[3] = Candida albicans strain ATCC 90028
[4] = Candida parapsilosis strain 94-8
[5] = Candida parapsilosis strain 94-9
[6] = Candida parapsilosis strain ATCC 90018

Structure (SMILES)	Antifungal Activity (MIC) (Aspergillus niger) [µg/mL]	Antifungal Activity (MIC) (Candida tropicalis; [1]) [µg/mL]	Antifungal Activity (MIC) (Candida tropicalis; [2]) [µg/mL]	Antifungal Activity (MIC) (Candida zeylanoided) [µg/mL]	Antifungal Activity (MIC) (Aspergillus fumigatus) [µg/mL]	Antifungal Activity (MIC) (Candida albicans; Candida albicans strain 94-1) [µg/mL]	Antifungal Activity (MIC) (Candida albicans; Candida albicans strain 1063)	Antifungal Activity (MIC) (Candida albicans; Candida albicans strain 1117)	Antifungal Activity (MIC) (Candida albicans; [3]) [µg/mL]	Antifungal Activity (MIC) (Candida lusitaniae) [µg/mL]	Antifungal Activity (MIC) (Candida parapsilosis; [4])	Antifungal Activity (MIC) (Candida parapsilosis; [5]) [µg/mL]	Antifungal Activity (MIC) (Candida parapsilosis; [6])	Antifungal Activity (MIC) (Candida rugosa) [µg/mL]	Antifungal Activity (MIC) (Candida krussii) [µg/mL]	Antifungal Activity (MIC) (Candida pseudotropicalis)	Antifungal Activity (MIC) (Aspergillus flavusr) [µg/mL]	also measured
C[C@@H]1[C@H](O)[C@@H](C)/C=C/C=C/C=C/C=C/C=C/C=C/C=C/[C@H](O[C@@H]2O[C@H](C)[C@@H](O)[C@H](N)[C@@H]2O)C[C@@H]2O[C@](O)(C[C@@H](O)C[C@@H](O)[C@H](O)CC[C@@H](O)C[C@@H](O)CC(=O)O[C@H]1C)C[C@H](O)[C@H]2C(=O)O [Amphotericin B]	0.25	0.125	0.125	0.25	0.25	0.125	≦0.06 μg/mL	≦0.06 μg/mL	0.125	0.125	≦0.06 μg/mL	0.125	≦0.06 μg/mL	0.25	0.125	≦0.06 μg/mL	0.50	
COC1CC2CCC(C)C(=O)C(O)(O2)C(=O)N2CCCCC2C(=O)OC(C(C)CC2CCC(OCCO)C(OC)C2)CC(=O)C(C)/C=C(\C)C(O)C(OC)C(=O)C(C)CC(C)/C=C/C=C/C=C/1C (stereo not drawn) [Compound, 1,17-dihydroxy-11-{2-[4-(2-hydroxy-ethoxy)-3-methoxy-cyclohexyl]-1methyl-ethyl}-18,29-dimethoxy-14,16,20,22,28,34-hexamethyl-10,36-dioxa-3-aza-tricyclo[29.4.1.0˜3,8]hexatriaconta-15,23,25,27-tetraen-2,9,13,19,35-pentaone]		0.125									0.125 µg/mL							MIC (Aspergillus niger; ATCC16404): 8 µg/mL (≈ 8.35 µM); MIC (Candida tropicalis; [2]): 0.125 µg/mL (≈ 0.13 µM); MIC (Candida zeylanoided): ≤ 0.06 µg/mL; MIC (Aspergillus fumigatus; ATCC26933): 32 µg/mL (≈ 33.4 µM); MIC (Candida albicans; ATCC90028, Candida albicans strain ATCC 90028): 0.125 µg/mL (≈ 0.13 µM); MIC (Candida albicans; Candida albicans strain 94-1): 0.25 µg/mL (≈ 0.261 µM); MIC (Candida albicans; Candida albicans strain 1063): ≤ 0.06 µg/mL; MIC (Candida albicans; Candida albicans strain 1117): 0.125 µg/mL (≈ 0.13 µM); MIC (Candida lusitaniae; Clavispora lusitaniae): ≤ 0.06 µg/mL; MIC (Candida parapsilosis; ATCC90018, Candida parapsilosis strain ATCC 90018): 0.25 µg/mL (≈ 0.261 µM); MIC (Candida parapsilosis; [5]): 0.125 µg/mL (≈ 0.13 µM); MIC (Candida rugosa; Diutina rugosa): 0.25 µg/mL (≈ 0.261 µM); MIC (Candida krussii): 0.5 µg/mL (≈ 0.522 µM); MIC (Candida pseudotropicalis; Kluyveromyces marxianus, ATCC28838): ≤ 0.06 µg/mL; MIC (Aspergillus flavusr): 8 µg/mL (≈ 8.35 µM)
C[C@@H]1[C@H](O)[C@@H](C)/C=C/C=C/CC/C=C/C=C/C=C/C=C/C(O[C@H]2O[C@H](C)[C@@H](O)[C@H](N)[C@@H]2O)CC2O[C@](O)(CC(O)C(O)CCC(O)CC(O)CC(O)CC(=O)O[C@H]1C)CC(O)C2C(=O)O (stereo partly drawn) [Nystatin]	1	1	2	1	2	2	1 µg/mL	1 µg/mL	1	1	2 µg/mL	1	2 µg/mL	1	1	1 µg/mL	2	
